According to patent publication US8883801B2, “Substituted pyrazolo[1,5-a]pyrimidines as mTOR inhibitors” (Merck Sharp & Dohme Corp., priority 2010, dated 2014):
Read-outs that look alike come from different tables or passages of the source.

What was measured:
human mTOR enzyme = human mTOR enzyme (Homo sapiens, UniProt P42345); assay: HTRF mTOR enzyme (kinase) assay; format: biochemical; settings: 5 μM ATP, 0.2 μM GST-S6K, read-out: hMTOR IC50
[1] = test system: mTORC2 activity: phosphorylated AKT Ser473 (pAKT S473) in PC3 cells; assay: mTOR target engagement assay, immunofluorescent cell-based, mTORC2 readout; settings: Homo sapiens, PC-3, 1.5 h, 90 min treatment
Summary of the method: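 Read-out is immunofluorescence intensity, normalized to DMSO-only wells and fitted to a sigmoidal Hill equation for IC50. The mTORC1 arm probes phospho-4E-BP1 Thr37/46 and the mTORC2 arm phospho-AKT Ser473.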

[2] = test system: mTORC1 activity: phosphorylated 4E-BP1 Thr37/46 (p4E-BP1 Thr37/46) in PC3 cells; assay: mTOR target engagement assay, immunofluorescent cell-based, mTORC1 readout; settings: Homo sapiens, PC-3, 1.5 h, 90 min treatment, read-out: P4EBP1 IC50
Procedure: The target engagement of mTOR kinase inhibitors was evaluated using an immunofluorescent cell-based assay. In this assay, inhibition of mTORC1 activity was measured by the reduction in the level of phosphorylated 4E-BP1Thr37/46 (p4E-BP1 Thr37/46), and inhibition of mTORC2 activity was measured by the reduction of phosphorylated AKTSer473 (pAKT S473).
PC3 cells (prostate tumor cell-line that contains a mutation in the tumor suppressor PTEN, that promotes the phosphorylation and activation of AKT and 4E-BP1) were used in the immunofluorescence assay. PC3 cells were seeded on 384 well plates (black clear bottom, Matrix #4332) overnight. PC3 cells were then treated with 40 μl of the serially diluted test compounds (in 5% fetal bovine serum, F12 medium containing 0.25% DMSO) for ninety minutes at 37° C. The test compound solution was removed, and the plates were washed gently two times with 25 μl phosphate buffered saline (PBS). The cells were fixed by adding 25 μl of Prefer reagent (from Anatech LTD, Cat#414, a glyoxal fixative for fixing proteins within a cell) for sixty minutes followed by three washes with PBS. 5% Goat serum in PBS/0.3% Triton was used to block non-specific binding (60 minutes).
The primary antibodies targeting pAKT S473 and p4E-BP1 Thr37/46 were diluted into PBS/0.3% Triton and incubated with the cells overnight at 4° C. The antibodies targeting pAKTS473 (Cat#4085, Cell signaling) and p4E-BP1 Thr37/46 (Cat#2855, Cell signaling) were used at a 1:100 dilution. Plates were washed three times with PBS/0.1% Tween 20 before adding the secondary antibody at a 1:200 dilution. (goat anti-rabbit containing a fluorescent label, Alexa Fluor 488, Cat#A11008, Invitrogen) in PBS/0.3% Triton for 60 minutes.
Finally, the plates were washed three times with PBS/0.1% Tween 20 and the fluorescent intensity was read using an Analyst HT from Molecular Devices. The fluorescent intensity values from the serially diluted compound treatment group were analyzed using the Xlfit 4 program ([…]) (Formula 205: Y=Bottom+(Top-Bottom)/(1+(IC50/X)^Hillslope) to generate the IC50 value. Where Top is the maximum signal without Compound (+DMSO only) and Bottom represents maximum inhibition. Y is the fluorescence at some compound concentration. The control used to determine the fluorescent intensities for 100% pAKT S473 or 100% phosphorylated p4E-BP1 Thr37/46 were measured from untreated wells that contained only DMSO, instead of test compound.

human mTOR enzyme, sequence (P42345 1360-2549 limits assumed): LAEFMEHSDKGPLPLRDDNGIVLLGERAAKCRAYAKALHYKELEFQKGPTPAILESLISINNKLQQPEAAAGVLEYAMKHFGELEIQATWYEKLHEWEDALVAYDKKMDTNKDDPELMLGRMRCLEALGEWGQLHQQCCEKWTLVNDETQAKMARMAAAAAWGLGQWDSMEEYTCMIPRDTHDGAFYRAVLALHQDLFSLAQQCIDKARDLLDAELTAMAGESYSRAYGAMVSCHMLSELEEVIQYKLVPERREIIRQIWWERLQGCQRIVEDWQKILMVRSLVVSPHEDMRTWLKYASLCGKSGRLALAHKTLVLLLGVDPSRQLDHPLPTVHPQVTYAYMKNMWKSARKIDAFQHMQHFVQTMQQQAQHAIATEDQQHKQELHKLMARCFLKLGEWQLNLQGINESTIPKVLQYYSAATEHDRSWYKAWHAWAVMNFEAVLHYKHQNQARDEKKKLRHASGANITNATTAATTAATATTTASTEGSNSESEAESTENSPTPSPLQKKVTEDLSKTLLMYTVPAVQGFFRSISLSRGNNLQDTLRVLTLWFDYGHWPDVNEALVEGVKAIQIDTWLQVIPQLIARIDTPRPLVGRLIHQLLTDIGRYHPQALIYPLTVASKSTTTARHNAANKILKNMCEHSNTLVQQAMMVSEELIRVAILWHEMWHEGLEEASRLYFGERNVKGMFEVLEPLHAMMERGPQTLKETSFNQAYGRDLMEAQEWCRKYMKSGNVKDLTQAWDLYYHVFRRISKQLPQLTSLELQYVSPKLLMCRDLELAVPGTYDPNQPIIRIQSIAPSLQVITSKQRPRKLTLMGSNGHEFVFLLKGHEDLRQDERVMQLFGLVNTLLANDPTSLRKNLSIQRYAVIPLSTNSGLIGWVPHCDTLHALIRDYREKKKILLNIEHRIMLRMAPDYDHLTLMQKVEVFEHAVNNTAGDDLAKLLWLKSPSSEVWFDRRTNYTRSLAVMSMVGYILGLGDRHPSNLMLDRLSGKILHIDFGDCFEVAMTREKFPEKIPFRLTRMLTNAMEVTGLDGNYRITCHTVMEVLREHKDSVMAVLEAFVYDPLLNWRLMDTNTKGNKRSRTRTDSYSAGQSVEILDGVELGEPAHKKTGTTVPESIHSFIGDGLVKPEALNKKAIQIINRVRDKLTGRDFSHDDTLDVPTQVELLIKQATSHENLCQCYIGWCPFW

Row | SMILES | IC50 (human mTOR enzyme; rated class) [nM] | IC50 ([1]; rated class) [nM] | IC50 ([2]; rated class) [nM] | IC50 (human mTOR enzyme; numeric value) [nM] | IC50 ([1]; numeric value) [nM] | IC50 ([2]; numeric value) [nM]
1 | CC(=O)c1c(C2CCC(O)(CNS(C)(=O)=O)CC2)nc2c(-c3ccc(-c4ccccc4)nc3)cnn2c1N (stereo not drawn) [Compound 160, N-((4-(6-acetyl-7-amino-3-(6-phenylpyridin-3-yl)pyrazolo[1,5-a]pyrimidin-5-yl)-1-hydroxycyclohexyl)methyl)methanesulfonamide] | 1 to 100 | 100 to 1000 | 100 to 1000 | – | – | –
2 | COCCO[C@]1(C(=O)c2nnc[nH]2)CC[C@@H](c2nc3c(-c4ccc(-c5ccccc5)nc4)cnn3c(N)c2S(C)(=O)=O)CC1 [Compound 125, ((1R,4R)-4-(7-amino-6-(methylsulfonyl)-3-(6-phenylpyridin-3-yl)pyrazolo[1,5-a]pyrimidin-5-yl)-1-(2-methoxyethoxy)cyclohexyl)(4H-1,2,4-triazol-3-yl)methanone] | 1 to 100 | 1 to 100 | 1 to 100 | – | – | –
3 | COCCO[C@]1(C(=O)O)CC[C@@H](c2nc3c(-c4cnc(-c5ncc(C)s5)nc4)cnn3c(N)c2S(C)(=O)=O)CC1 [Compound 51, (1R,4R)-4-(7-amino-6-(methylsulfonyl)-3-(2-(5-methylthiazol-2-yl)pyrimidin-5-yl)pyrazolo[1,5-a]pyrimidin-5-yl)-1-(2-methoxyethoxy) cyclohexanecarboxylic acid] | 1 to 100 | 100 to 1000 | 1000 to 2000 | – | – | –
4 | CC(=O)c1c(N)n2ncc(-c3ccc(-c4ccccc4)nc3)c2nc1[C@H]1CC[C@](C)(C(=O)O)CC1 [Compound 15, (1R,4R)-4-(6-acetyl-7-amino-3-(6-phenylpyridin-3-yl)pyrazolo[1,5-a]pyrimidin-5-yl)-1-methylcyclohexanecarboxylic acid] | 1 to 100 | 100 to 1000 | 100 to 1000 | – | – | –
5 | Nc1c(Br)c([C@H]2CC[C@@](OCCN3CCOCC3)(C(=O)O)CC2)nc2c(-c3cnn(-c4ccccc4)c3)cnn12 [Compound 67, (1R,4R)-4-(7-amino-6-bromo-3-(1-phenyl-1H-pyrazol-4-yl)pyrazolo[1,5-a]pyrimidin-5-yl)-1-(2-morpholinoethoxy) cyclohexanecarboxylic acid] | 1 to 100 | 100 to 1000 | 100 to 1000 | – | – | –
6 | COCCO[C@]1(C(=O)O)CC[C@@H](c2nc3c(-c4ccc(-c5ccc(O)c(F)c5)nc4)cnn3c(N)c2S(C)(=O)=O)CC1 [Compound 48, (1R,4R)-4-(7-amino-3-(6-(3-fluoro-4-hydroxyphenyl)pyridin-3-yl)-6-(methylsulfonyl)-pyrazolo[1,5-a]-pyrimidin-5-yl)-1-(2-methoxyethoxy)-cyclohexanecarboxylic acid] | 1 to 100 | 5000 to 15000 | 5000 to 15000 | – | – | –
7 | C[C@]1(C(=O)O)CC[C@H](c2nc3c(-c4ccc(-c5ccccc5)nc4)cnn3c(N)c2C#N)CC1 [Compound 25, (1R,4R)-4-(7-amino-6-cyano-3-(6-phenylpyridin-3-yl)pyrazolo[1,5-a]pyrimidin-5-yl)-1-methylcyclohexanecarboxylic acid] | 1 to 100 | 100 to 1000 | 100 to 1000 | – | – | –
8 | COCCO[C@]1(C(=O)N2CCC(=O)N2)CC[C@@H](c2nc3c(-c4cnn(-c5ccccc5)c4)cnn3c(N)c2S(C)(=O)=O)CC1 [Compound 95, 1-((1R,4R)-4-(7-amino-6-(methylsulfonyl)-3-(1-phenyl-1H-pyrazol-4-yl)pyrazolo[1,5-a]pyrimidin-5-yl)-1-(2-methoxyethoxy)cyclohexanecarbonyl)-pyrazolidin-3-one] | 1 to 100 | 100 to 1000 | 100 to 1000 | – | – | –
9 | COCCO[C@]1(C(N)=O)CC[C@@H](c2nc3c(-c4ccc(-c5ccccc5)nc4)cnn3c(N)c2S(C)(=O)=O)CC1 [Compound 111] | – | – | – | 1 | 48 | 141
10 | COCCO[C@]1(c2nnc[nH]2)CC[C@@H](c2nc3c(-c4ccc(-c5ccccc5)nc4)cnn3c(N)c2S(C)(=O)=O)CC1 [Compound 128] | 1 to 100 | 100 to 1000 | 100 to 1000 | – | – | –
11 | COCCO[C@]1(C(N)=O)CC[C@@H](c2nc3c(-c4cnn(-c5ccccc5)c4)cnn3c(N)c2S(C)(=O)=O)CC1 [Compound 110, (1R,4R)-4-(7-amino-6-(methylsulfonyl)-3-(1-phenyl-1H-pyrazol-4-yl)pyrazolo[1,5-a]pyrimidin-5-yl)-1-(2-methoxyethoxy)cyclohexanecarboxamide] | 1 to 100 | 1 to 100 | 1 to 100 | – | – | –
12 | CC(=O)c1c(N)n2ncc(-c3ccc(-c4ccccc4)nc3)c2nc1[C@H]1CC[C@@](O)(CS(C)(=O)=O)CC1 [Compound 161, 1-(7-amino-5-((1R,4R)-4-hydroxy-4-(methylsulfonylmethyl)cyclohexyl)-3-(6-phenylpyridin-3-yl)pyrazolo[1,5-a]pyrimidin-6-yl)ethanone] | 1 to 100 | 100 to 1000 | 100 to 1000 | – | – | –
13 | CC(=O)c1c(N)n2ncc(-c3ccc(-c4ccccc4)nc3)c2nc1[C@H]1CC[C@@](O)(CO)CC1 [Compound 139, 1-(7-amino-5-((1R,4R)-4-hydroxy-4-(hydroxymethyl)cyclohexyl)-3-(6-phenylpyridin-3-yl)pyrazolo[1,5-a]pyrimidin-6-yl)ethanone] | 1 to 100 | 100 to 1000 | 100 to 1000 | – | – | –
14 | CS(=O)(=O)c1c(C2CCC(O)(CO)CC2)nc2c(-c3cnn(-c4ccccc4)c3)cnn2c1N (stereo not drawn) [Compound 166, 4-(7-amino-6-(methylsulfonyl)-3-(1-phenyl-1H-pyrazol-4-yl)pyrazolo[1,5-a]pyrimidin-5-yl)-1-(hydroxymethyl)cyclohexanol] | 1 to 100 | 1 to 100 | 100 to 1000 | – | – | –
15 | COCCO[C@]1(c2nnc[nH]2)CC[C@@H](c2nc3c(-c4cnn(-c5ccccc5)c4)cnn3c(N)c2S(C)(=O)=O)CC1 [Compound 127, 5-((1R,4R)-4-(2-methoxyethoxy)-4-(4H-1,2,4-triazol-3-yl)cyclohexyl)-6-(methylsulfonyl)-3-(1-phenyl-1H-pyrazol-4-yl)pyrazolo[1,5-a]pyrimidin-7-amine] | 1 to 100 | 100 to 1000 | 100 to 1000 | – | – | –
16 | COCCO[C@]1(C(=O)NCCO)CC[C@@H](c2nc3c(-c4cnn(-c5ccccc5)c4)cnn3c(N)c2S(C)(=O)=O)CC1 [Compound 92, (1R,4R)-4-(7-amino-6-(methylsulfonyl)-3-(1-phenyl-1H-pyrazol-4-yl)pyrazolo[1,5-a]pyrimidin-5-yl)-N-(2-hydroxyethyl)-1-(2-methoxyethoxy)-cyclohexane-carboxamide] | 1 to 100 | 1 to 100 | 100 to 1000 | – | – | –
17 | COCCO[C@]1(C(N)=O)CC[C@H](c2nc3c(-c4ccc(-c5ncc[nH]5)nc4)cnn3c(N)c2C(C)=O)CC1 [Compound 113, (1S,4S)-4-(3-(6-(1H-imidazol-2-yl)pyridin-3-yl)-6-acetyl-7-aminopyrazolo[1,5-a]pyrimidin-5-yl)-1-(2-methoxyethoxy) cyclohexanecarboxamide] | 1 to 100 | 100 to 1000 | 100 to 1000 | – | – | –
18 | COCCO[C@]1(C(=O)O)CC[C@@H](c2nc3c(-c4cnc5ccc(F)cc5c4)cnn3c(N)c2S(C)(=O)=O)CC1 [Compound 52, (1R,4R)-4-(7-amino-3-(6-fluoroquinolin-3-yl)-6-(methylsulfonyl)-pyrazolo[1,5-a]-pyrimidin-5-yl)-1-(2-methoxyethoxy)-cyclohexanecarboxylic acid] | 1 to 100 | 100 to 1000 | 100 to 1000 | – | – | –
19 | CO[C@]1(C(=O)O)CC[C@@H](c2nc3c(-c4cnn(-c5ccccc5)c4)cnn3c(N)c2Br)CC1 [Compound 30, (1R,4R)-4-(7-amino-6-bromo-3-(1-phenyl-1H-pyrazol-4-yl)pyrazolo[1,5-a]pyrimidin-5-yl)-1-methoxycyclohexane-carboxylic acid] | 1 to 100 | 100 to 1000 | 100 to 1000 | – | – | –
